Experimental data from patent US20230416232A1, “PYRIMIDINE COMPOUNDS, COMPOSITIONS, AND MEDICINAL APPLICATIONS THEREOF” (Blueprint Medicines Corporation, priority 2020, published 2023).
Counter-ions that a name gives are not always drawn.

Columns and labels:
Assay type in all cases: cell-based
[1] = target: HER2 (A775_G776insYVMA) expressing Ba/F3 stable cell line (Homo sapiens, UniProt P04626, DUP772-775, cells depend on it); assay: Cellular proliferation (Alamar Blue) assay, HER2 (A775_G776insYVMA) Ba/F3; details: HER2 (A775_G776insYVMA) Ba/F3 cells; 72 hr; Alamar Blue; read-out: YVMA IC50
Method in brief: (§1)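 Seed A431 at 5000 and Ba/F3 at 15,000 cells/well in 10% FBS medium and incubate 16-18 h at 37 °C, 5% CO2. Add compound (final 10-0.0005 μM, 3-fold steps) or DMSO for 72 h. Add Alamar Blue and read after 3 h.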

[2] = target: EGFR (A767_dupASV) expressing Ba/F3 stable cell line (Homo sapiens, UniProt P00533, DUP767-769, cells depend on it); assay: Cellular proliferation (Alamar Blue) assay, EGFR (A767_dupASV) Ba/F3; details: 72 hr, read-out: A767 IC50
Method in brief: as §1

A431 cells = assay: Cellular proliferation (Alamar Blue) assay, A431 cells; details: Homo sapiens, A-431, 72 h, A431 cells; 72 hr; Alamar Blue; read-out: A431 IC50
Method in brief: as §1

[3] = target: EGFR (H773insNPH) expressing Ba/F3 stable cell line (Homo sapiens, UniProt P00533, DUP771-773, cells depend on it); assay: Cellular proliferation (Alamar Blue) assay, EGFR (H773insNPH) Ba/F3; details: 72 hr, read-out: NPH IC50
Method: Cell line details: • 1. EGFR(D770_N771insSVD) expressing Ba/F3 stable cell line • 2. EGFR (A767_dupASV) expressing Ba/F3 stable cell line • 3. A431 cells • 4. EGFR (H773insNPH) expressing Ba/F3 stable cell line • 5. HER2 (A775_G776insYVMA) expressing Ba/F3 stable cell line
• 1. Seed cells at 5000 for A431 and 15,000 cells for Ba/F3 in 100 μL/well in complete media (for A431: DMEM with 10% FBS and for Ba/F3 cells: RPMI with 10% FBS) in 96-well tissue culture plate. Leave outer wells without cells for background measurements. Incubate at 37 degree Celsius in 5% CO2 humidified incubator for 16-18 hours. • 2. Add 0.025 ml of 5X concentration compound dilution or DMSO control. Final compound concentration range is 10-0.0005 μM prepared in 3-fold serial dilutions. Incubate for 72 hr at 37 degree Celsius in 5% CO2 humidified incubator. • 3. Add 0.0125 ml Alamar Blue™ reagent to each well with multi-channel pipette and tap gently on each side of the plate to mix. Incubate for 3 hours at 37 degree Celsius in 5% CO2 humidified incubator. • 4. […] Data analysis was performed using XLfit 5.5.0.5.

[4] = target: EGFR(D770_N771insSVD) expressing Ba/F3 stable cell line (Homo sapiens, UniProt P00533, DUP768-770, cells depend on it); assay: Cellular proliferation (Alamar Blue) assay, EGFR(D770_N771insSVD) Ba/F3; details: 72 hr, read-out: D770 IC50
Method in brief: as §1

Sequence of EGFR (H773insNPH) expressing Ba/F3 stable cell line (P00533 with tags, fused parts or gaps DUP771-773): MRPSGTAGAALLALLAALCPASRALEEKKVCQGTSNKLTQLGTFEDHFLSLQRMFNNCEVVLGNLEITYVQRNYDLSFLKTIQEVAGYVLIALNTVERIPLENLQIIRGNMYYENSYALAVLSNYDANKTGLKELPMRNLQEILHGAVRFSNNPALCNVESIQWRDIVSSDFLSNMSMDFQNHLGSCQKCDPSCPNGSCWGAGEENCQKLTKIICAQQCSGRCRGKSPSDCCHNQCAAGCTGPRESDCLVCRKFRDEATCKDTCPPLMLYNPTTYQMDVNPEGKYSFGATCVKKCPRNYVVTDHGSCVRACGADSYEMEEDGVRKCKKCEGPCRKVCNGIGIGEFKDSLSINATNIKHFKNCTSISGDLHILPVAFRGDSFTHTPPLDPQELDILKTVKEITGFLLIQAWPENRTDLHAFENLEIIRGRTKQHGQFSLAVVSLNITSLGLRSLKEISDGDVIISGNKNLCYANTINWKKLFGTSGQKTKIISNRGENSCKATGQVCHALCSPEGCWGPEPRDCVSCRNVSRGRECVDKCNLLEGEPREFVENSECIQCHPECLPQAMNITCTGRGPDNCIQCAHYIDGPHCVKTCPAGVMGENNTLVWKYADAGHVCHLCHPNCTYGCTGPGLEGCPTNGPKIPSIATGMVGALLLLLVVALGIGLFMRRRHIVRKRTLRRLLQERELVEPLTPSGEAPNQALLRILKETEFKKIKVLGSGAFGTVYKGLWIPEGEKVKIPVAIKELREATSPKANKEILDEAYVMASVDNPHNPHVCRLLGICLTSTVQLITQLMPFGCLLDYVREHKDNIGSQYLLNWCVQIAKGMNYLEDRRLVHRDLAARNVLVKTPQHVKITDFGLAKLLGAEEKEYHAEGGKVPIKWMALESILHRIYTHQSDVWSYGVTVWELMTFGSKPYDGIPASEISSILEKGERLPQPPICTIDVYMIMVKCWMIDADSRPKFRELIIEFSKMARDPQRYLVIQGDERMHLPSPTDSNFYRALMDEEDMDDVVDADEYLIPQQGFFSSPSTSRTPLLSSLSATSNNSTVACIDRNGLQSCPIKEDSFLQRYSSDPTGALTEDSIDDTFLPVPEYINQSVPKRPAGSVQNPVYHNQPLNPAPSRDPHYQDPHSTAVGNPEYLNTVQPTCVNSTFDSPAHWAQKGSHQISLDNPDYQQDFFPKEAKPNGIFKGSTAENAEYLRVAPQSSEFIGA
Sequence of EGFR(D770_N771insSVD) expressing Ba/F3 stable cell line (P00533 with tags, fused parts or gaps DUP768-770): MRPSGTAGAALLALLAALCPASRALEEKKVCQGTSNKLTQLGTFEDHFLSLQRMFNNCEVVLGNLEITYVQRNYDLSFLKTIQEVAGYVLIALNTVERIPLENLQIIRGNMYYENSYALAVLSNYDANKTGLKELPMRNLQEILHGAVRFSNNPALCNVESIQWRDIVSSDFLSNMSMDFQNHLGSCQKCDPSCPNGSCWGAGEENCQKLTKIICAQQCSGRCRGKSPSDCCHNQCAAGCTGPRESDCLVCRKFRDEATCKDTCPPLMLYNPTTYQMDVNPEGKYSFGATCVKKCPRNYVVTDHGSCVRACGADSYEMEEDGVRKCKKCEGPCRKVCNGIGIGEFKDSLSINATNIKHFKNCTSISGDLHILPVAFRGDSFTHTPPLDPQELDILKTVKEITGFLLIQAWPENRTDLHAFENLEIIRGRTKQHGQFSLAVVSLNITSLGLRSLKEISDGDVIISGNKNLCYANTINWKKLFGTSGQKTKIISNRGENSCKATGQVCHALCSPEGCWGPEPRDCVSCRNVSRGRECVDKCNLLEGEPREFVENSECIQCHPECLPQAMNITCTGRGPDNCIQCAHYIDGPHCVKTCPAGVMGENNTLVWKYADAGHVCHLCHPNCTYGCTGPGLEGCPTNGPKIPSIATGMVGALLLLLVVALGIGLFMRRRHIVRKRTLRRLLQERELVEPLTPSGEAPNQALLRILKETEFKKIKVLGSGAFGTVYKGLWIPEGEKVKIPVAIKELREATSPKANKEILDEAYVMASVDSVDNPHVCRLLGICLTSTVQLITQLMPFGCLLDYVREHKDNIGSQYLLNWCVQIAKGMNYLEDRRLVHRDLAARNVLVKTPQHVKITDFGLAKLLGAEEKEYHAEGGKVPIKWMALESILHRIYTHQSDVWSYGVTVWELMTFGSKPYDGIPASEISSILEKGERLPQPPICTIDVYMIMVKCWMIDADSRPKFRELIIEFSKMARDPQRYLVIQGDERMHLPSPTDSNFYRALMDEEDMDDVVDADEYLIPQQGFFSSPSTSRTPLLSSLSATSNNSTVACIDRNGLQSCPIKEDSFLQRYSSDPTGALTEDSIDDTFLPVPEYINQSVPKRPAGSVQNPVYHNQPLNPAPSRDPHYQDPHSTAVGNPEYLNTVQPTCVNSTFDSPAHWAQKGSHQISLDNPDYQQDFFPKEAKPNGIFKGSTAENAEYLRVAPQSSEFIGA
Sequence of EGFR (A767_dupASV) expressing Ba/F3 stable cell line (P00533 with tags, fused parts or gaps DUP767-769): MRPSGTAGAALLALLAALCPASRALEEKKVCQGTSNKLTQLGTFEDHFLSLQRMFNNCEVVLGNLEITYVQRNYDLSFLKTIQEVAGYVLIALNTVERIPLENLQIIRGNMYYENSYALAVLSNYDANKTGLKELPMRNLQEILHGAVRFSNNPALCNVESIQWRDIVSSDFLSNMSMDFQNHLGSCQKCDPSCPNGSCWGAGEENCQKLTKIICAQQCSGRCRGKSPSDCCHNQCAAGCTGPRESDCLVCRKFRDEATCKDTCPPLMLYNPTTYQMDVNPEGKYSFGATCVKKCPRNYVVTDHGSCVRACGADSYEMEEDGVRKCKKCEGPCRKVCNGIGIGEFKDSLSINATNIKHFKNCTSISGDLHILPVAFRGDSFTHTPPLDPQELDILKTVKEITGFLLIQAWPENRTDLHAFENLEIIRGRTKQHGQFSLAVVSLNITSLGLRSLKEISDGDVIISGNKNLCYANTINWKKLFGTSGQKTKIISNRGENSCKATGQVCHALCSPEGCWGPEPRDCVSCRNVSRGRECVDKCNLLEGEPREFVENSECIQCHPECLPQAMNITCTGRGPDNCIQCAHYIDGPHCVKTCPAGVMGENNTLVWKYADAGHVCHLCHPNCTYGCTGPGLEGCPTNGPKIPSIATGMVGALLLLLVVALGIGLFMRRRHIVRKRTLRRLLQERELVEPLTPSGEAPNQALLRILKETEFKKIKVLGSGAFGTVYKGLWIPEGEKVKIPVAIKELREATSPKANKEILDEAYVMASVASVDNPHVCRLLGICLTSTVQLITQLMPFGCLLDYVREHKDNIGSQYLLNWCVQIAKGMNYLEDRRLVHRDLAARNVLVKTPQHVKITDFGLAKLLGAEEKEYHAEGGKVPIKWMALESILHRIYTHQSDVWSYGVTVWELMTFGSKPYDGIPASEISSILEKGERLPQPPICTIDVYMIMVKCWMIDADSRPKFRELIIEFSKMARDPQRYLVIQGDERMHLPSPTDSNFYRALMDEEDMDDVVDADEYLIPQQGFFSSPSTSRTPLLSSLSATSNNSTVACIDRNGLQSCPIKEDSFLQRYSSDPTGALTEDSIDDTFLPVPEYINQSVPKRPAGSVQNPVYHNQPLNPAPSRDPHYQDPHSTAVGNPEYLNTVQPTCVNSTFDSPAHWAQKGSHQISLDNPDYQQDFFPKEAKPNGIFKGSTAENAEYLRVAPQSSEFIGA
Sequence of HER2 (A775_G776insYVMA) expressing Ba/F3 stable cell line (P04626 with tags, fused parts or gaps DUP772-775): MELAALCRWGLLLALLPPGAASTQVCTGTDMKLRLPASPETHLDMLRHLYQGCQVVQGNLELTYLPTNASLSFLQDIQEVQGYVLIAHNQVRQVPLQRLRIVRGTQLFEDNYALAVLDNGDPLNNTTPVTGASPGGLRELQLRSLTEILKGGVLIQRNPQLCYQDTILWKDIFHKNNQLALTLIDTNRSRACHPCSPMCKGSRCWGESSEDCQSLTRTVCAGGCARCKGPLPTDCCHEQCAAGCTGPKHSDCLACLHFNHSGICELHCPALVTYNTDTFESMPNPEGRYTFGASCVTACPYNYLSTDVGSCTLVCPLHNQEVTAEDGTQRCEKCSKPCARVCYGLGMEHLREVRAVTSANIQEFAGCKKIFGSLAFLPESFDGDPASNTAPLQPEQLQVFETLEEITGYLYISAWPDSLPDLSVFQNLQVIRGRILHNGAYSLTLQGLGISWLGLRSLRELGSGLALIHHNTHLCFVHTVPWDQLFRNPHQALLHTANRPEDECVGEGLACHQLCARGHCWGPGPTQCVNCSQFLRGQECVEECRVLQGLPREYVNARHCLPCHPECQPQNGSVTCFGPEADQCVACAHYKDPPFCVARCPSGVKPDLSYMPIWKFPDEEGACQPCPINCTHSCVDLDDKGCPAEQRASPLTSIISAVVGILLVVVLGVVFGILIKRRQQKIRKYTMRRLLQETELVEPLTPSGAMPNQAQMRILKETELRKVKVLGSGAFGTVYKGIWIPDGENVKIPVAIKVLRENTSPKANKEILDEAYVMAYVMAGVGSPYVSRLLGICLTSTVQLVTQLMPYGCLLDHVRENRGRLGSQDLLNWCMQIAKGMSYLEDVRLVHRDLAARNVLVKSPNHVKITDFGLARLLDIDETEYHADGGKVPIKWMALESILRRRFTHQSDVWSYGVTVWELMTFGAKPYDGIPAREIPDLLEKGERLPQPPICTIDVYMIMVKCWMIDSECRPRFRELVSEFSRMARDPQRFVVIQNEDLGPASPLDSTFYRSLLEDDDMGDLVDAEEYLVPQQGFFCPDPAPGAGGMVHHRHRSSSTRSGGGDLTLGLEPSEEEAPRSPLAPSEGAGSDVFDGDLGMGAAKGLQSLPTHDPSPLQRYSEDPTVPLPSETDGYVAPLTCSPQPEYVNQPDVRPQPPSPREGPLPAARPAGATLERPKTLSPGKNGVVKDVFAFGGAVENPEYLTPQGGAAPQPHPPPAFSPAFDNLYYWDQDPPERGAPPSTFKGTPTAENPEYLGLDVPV

Row | SMILES | GI50 [1] | GI50 [2] | IC50 (A431 cells) | GI50 [3] | GI50 [4]
1 | C=CC(=O)Nc1ccc(F)c(Nc2nc(Nc3cnn(C)c3)ncc2-c2cc(F)ccc2Cl)c1 [Compound 11, N-(3-((5-(2-chloro-5-fluorophenyl)-2-((1-methyl-1H-pyrazol-4-yl)amino)pyrimidin-4-yl)amino)-4-fluorophenyl)acrylamide] | 1070 nM | 262 nM | 1950 nM | 124 nM | 194 nM
2 | C=CC(=O)Nc1cccc(Nc2nc(Nc3cnn(C)c3)ncc2-c2cc(F)cc(C(F)F)c2)c1 [Compound 43, N-(3-((5-(3-(difluoromethyl)-5-fluorophenyl)-2-((1-methyl-1H-pyrazol-4-yl)amino)pyrimidin-4-yl)amino)phenyl)acrylamide] | 84 nM | 41 nM | 707 nM | 24 nM | 35 nM
3 | C=CC(=O)Nc1ccc(F)c(Nc2nc(Nc3cnn(CCN(C)C)c3)ncc2-c2ccc(Cl)c(Cl)c2)c1 [Compound 58, N-(3-((5-(3,4-dichlorophenyl)-2-((1-(2-(dimethylamino)ethyl)-1H-pyrazol-4-yl)amino)pyrimidin-4-yl)amino)-4-fluorophenyl)acrylamide] | 100 nM | 257 nM | 85 nM | 214 nM | 130 nM
4 | C=CC(=O)Nc1ccc(F)c(Nc2nc(Nc3cnn(C)c3)ncc2-c2cc(F)cc(C(F)F)c2)c1 [Compound 15, N-(3-((5-(3-(difluoromethyl)-5-fluorophenyl)-2-((1-methyl-1H-pyrazol-4-yl)amino)pyrimidin-4-yl)amino)-4-fluorophenyl)acrylamide] | 124 nM | 45 nM | 84 nM | 102 nM | 36 nM
5 | C=CC(=O)Nc1ccc(F)c(Nc2nc(Nc3cnn(C)c3)ncc2-c2ccc(OC)c(F)c2)c1 [Compound 1, N-(4-fluoro-3-((5-(3-fluoro-4-methoxyphenyl)-2-((1-methyl-1H-pyrazol-4-yl)amino)pyrimidin-4-yl)amino)phenyl)acrylamide] | 91 nM | 36 nM | 269 nM | 36 nM | 36 nM
6 | C=CC(=O)Nc1ccc(F)c(Nc2nc(Nc3cnn(CCN(C)C)c3)ncc2-c2ccc(Br)c(Cl)c2)c1 [Compound 89, N-(3-((5-(4-bromo-3-chlorophenyl)-2-((1-(2-(dimethylamino)ethyl)-1H-pyrazol-4-yl)amino)pyrimidin-4-yl)amino)-4-fluorophenyl)acrylamide] | 123 nM | 108 nM | 343 nM | 56 nM | 102 nM
7 | C=CC(=O)Nc1ccc(F)c(Nc2nc(Nc3cnn(C)c3)ncc2-c2ccc(OC(F)F)c(F)c2)c1 [Compound 16, N-(3-((5-(4-(difluoromethoxy)-3-fluorophenyl)-2-((1-methyl-1H-pyrazol-4-yl)amino)pyrimidin-4-yl)amino)-4-fluorophenyl)acrylamide] | 43 nM | 9 nM | 460 nM | 24 nM | 10 nM
8 | C=CC(=O)Nc1ccc(F)c(Nc2nc(Nc3cnn(C)c3)ncc2-c2cc(Cl)cc(Cl)c2)c1 [Compound 32, N-(3-((5-(3,5-dichlorophenyl)-2-((1-methyl-1H-pyrazol-4-yl)amino)pyrimidin-4-yl)amino)-4-fluorophenyl)acrylamide] | 1160 nM | 159 nM | > 10000 nM | 160 nM | 294 nM
9 | C=CC(=O)Nc1ccc(F)c(Nc2nc(Nc3cnn(C)c3)ncc2-c2cc(F)cc(OC)c2)c1 [Compound 65, N-(4-fluoro-3-{[5-(3-fluoro-5-methoxyphenyl)-2-[(1-methyl-1H-pyrazol-4-yl)amino]pyrimidin-4-yl]amino}phenyl)prop-2-enamide] | 112 nM | 226 nM | 1070 nM | 304 nM | 114 nM
10 | C=CC(=O)Nc1ccc(F)c(Nc2nc(Nc3cn(C)nc3Cl)ncc2-c2ccc(Br)c(F)c2)c1 [Compound 92, N-(3-((5-(4-bromo-3-fluorophenyl)-2-((3-chloro-1-methyl-1H-pyrazol-4-yl)amino)pyrimidin-4-yl)amino)-4-fluorophenyl)acrylamide] | 113 nM | 102 nM | 45 nM | 54 nM | 74 nM
11 | C=CC(=O)Nc1ccc(F)c(Nc2nc(Nc3cnn(C)c3)ncc2-c2cnc(OC)c(Cl)c2)c1 [Compound 31, N-(3-((5-(5-chloro-6-methoxypyridin-3-yl)-2-((1-methyl-1H-pyrazol-4-yl)amino)pyrimidin-4-yl)amino)-4-fluorophenyl)acrylamide trifluoroacetate] | 94 nM | 34 nM | 582 nM | 92 nM | 50 nM
12 | C=CC(=O)Nc1ccc(F)c(Nc2nc(Nc3cnn(C)c3)ncc2-c2ccc(Cl)c(Cl)c2)c1 [Compound 50, N-(3-((5-(3,4-dichlorophenyl)-2-((1-methyl-1H-pyrazol-4-yl)amino)pyrimidin-4-yl)amino)-4-fluorophenyl)acrylamide] | 86 nM | 26 nM | 70 nM | 61 nM | 32 nM
13 | C=CC(=O)Nc1ccc(F)c(Nc2nc(Nc3cnn(C)c3)ncc2-c2ccc(N3CCCCC3)c(F)c2)c1 [Compound 78, N-(4-fluoro-3-((5-(3-fluoro-4-(piperidin-1-yl)phenyl)-2-((1-methyl-1H-pyrazol-4-yl)amino)pyrimidin-4-yl)amino)phenyl)acrylamide] | 286 nM | 59 nM | 102 nM | 144 nM | 111 nM
14 | C=CC(=O)Nc1ccc(F)c(Nc2nc(Nc3cnn(C)c3)ncc2-c2ccc(C(F)F)c(F)c2)c1 [Compound 37, N-(3-((5-(4-(difluoromethyl)-3-fluorophenyl)-2-((1-methyl-1H-pyrazol-4-yl)amino)pyrimidin-4-yl)amino)-4-fluorophenyl)acrylamide] | 93 nM | 34 nM | 51 nM | 51 nM | 30 nM
15 | C=CC(=O)Nc1cccc(Nc2nc(Nc3cnn(C)c3)ncc2-c2ccc(F)c(Cl)c2)c1 [Compound 49, N-(3-((5-(3-chloro-4-fluorophenyl)-2-((1-methyl-1H-pyrazol-4-yl)amino)pyrimidin-4-yl)amino)phenyl)acrylamide] | 65 nM | 44 nM | 246 nM | 27 nM | 38 nM
16 | C=CC(=O)Nc1ccc(F)c(Nc2nc(Nc3cnn(C)c3)ncc2-c2ccc(F)c(Cl)c2)c1 [Compound 6, N-(3-((5-(3-chloro-4-fluorophenyl)-2-((1-methyl-1H-pyrazol-4-yl)amino)pyrimidin-4-yl)amino)-4-fluorophenyl)acrylamide] | 187 nM | 80 nM | 810 nM | 83 nM | 51 nM
17 | C=CC(=O)Nc1ccc(F)c(Nc2nc(Nc3cnn(C)c3)ncc2-c2cc(F)cc(C(F)(F)F)c2)c1 [Compound 27, N-(4-fluoro-3-((5-(3-fluoro-5-(trifluoromethyl)phenyl)-2-((1-methyl-1H-pyrazol-4-yl)amino)pyrimidin-4-yl)amino)phenyl)acrylamide] | 150 nM | 31 nM | 73 nM | 55 nM | 35 nM
18 | C=CC(=O)Nc1ccc(F)c(Nc2nc(Nc3cnn(C)c3)ncc2-c2ccc(N3CCCC3)c(F)c2)c1 [Compound 77, N-(4-fluoro-3-((5-(3-fluoro-4-(pyrrolidin-1-yl)phenyl)-2-((1-methyl-1H-pyrazol-4-yl)amino)pyrimidin-4-yl)amino)phenyl)acrylamide] | 584 nM | 113 nM | 297 nM | 353 nM | 340 nM
19 | C=CC(=O)Nc1ccc(F)c(Nc2nc(Nc3cnn(C)c3)ncc2-c2ccc(OC)cc2F)c1 [Compound 7, N-(4-fluoro-3-((5-(2-fluoro-4-methoxyphenyl)-2-((1-methyl-1H-pyrazol-4-yl)amino)pyrimidin-4-yl)amino)phenyl)acrylamide] | 377 nM | 97 nM | 229 nM | 97 nM | 94 nM
